This note sets out measurements from ChEMBL document CHEMBL4476867, “Hydroxy formamide derivatives and their use” (2016).

In experiment [1] the target is T1, Bone morphogenetic protein 1 (Homo sapiens, UniProt P13497).
T1 sequence (P13497 whole entry): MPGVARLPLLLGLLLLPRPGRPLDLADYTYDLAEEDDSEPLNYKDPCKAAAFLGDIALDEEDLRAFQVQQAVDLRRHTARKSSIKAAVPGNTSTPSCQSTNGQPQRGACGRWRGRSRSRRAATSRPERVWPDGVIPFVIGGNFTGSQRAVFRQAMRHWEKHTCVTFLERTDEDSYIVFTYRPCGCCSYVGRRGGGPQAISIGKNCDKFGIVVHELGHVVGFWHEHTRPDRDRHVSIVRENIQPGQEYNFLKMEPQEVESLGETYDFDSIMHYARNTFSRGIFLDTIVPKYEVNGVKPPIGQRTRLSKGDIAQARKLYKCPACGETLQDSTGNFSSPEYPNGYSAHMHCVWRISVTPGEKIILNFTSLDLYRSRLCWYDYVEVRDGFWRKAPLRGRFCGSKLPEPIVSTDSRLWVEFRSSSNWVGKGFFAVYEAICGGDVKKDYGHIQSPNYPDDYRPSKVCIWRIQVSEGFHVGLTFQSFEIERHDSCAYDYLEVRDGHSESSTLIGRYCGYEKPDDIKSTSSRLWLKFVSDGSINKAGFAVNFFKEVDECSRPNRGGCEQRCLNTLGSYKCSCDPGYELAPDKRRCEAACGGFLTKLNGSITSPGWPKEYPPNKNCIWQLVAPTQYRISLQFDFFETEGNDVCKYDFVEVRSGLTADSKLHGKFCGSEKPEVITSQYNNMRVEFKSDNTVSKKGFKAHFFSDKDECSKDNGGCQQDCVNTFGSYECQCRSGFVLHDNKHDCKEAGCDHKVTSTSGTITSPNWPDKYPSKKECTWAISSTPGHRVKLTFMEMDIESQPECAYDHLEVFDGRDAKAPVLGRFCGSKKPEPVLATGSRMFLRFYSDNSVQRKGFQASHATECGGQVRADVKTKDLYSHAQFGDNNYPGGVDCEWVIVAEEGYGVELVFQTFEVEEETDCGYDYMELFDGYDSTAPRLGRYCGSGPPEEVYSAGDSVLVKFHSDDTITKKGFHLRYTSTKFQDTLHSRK
Kind of experiment: Inhibition of C-terminal FLAG-6x-His epitope tagged and N-terminal human RAGE signal sequence tagged human BMP1 (23 to 721 amino acids) expressed in CHO-E1 cells pre-incubated for 10 mins before promyostatin peptide substrate addition and measured after 60 mins using 0.5 nM BMP1 by FRET based assay. Format: cell-based.

The target of experiment [2] is T1, Bone morphogenetic protein 1. Briefly: Inhibition of C-terminal FLAG-6x-His epitope tagged and N-terminal human RAGE signal sequence tagged human BMP1 (23 to 721 amino acids) expressed in CHO-E1 cells pre-incubated for 10 mins before promyostatin peptide substrate addition and measured after 30 mins using 50 nM BMP1 by FRET based assay. Format: cell-based.
The next experiment deals with Tolloid-like protein 1 (Homo sapiens, UniProt O43897, I156V/N221S/V284A). Kind of experiment: Inhibition of recombinant human TLL1 I156V/N221S/V284A mutant expressed in CHOE1A cells pre-incubated for 10 mins before promyostatin peptide substrate addition and measured after 60 mins by FRET based assay. Format: cell-based.
In another experiment the target is T2, Tolloid-like protein 2 (Homo sapiens, UniProt Q9Y6L7).
T2 sequence (Q9Y6L7 whole entry): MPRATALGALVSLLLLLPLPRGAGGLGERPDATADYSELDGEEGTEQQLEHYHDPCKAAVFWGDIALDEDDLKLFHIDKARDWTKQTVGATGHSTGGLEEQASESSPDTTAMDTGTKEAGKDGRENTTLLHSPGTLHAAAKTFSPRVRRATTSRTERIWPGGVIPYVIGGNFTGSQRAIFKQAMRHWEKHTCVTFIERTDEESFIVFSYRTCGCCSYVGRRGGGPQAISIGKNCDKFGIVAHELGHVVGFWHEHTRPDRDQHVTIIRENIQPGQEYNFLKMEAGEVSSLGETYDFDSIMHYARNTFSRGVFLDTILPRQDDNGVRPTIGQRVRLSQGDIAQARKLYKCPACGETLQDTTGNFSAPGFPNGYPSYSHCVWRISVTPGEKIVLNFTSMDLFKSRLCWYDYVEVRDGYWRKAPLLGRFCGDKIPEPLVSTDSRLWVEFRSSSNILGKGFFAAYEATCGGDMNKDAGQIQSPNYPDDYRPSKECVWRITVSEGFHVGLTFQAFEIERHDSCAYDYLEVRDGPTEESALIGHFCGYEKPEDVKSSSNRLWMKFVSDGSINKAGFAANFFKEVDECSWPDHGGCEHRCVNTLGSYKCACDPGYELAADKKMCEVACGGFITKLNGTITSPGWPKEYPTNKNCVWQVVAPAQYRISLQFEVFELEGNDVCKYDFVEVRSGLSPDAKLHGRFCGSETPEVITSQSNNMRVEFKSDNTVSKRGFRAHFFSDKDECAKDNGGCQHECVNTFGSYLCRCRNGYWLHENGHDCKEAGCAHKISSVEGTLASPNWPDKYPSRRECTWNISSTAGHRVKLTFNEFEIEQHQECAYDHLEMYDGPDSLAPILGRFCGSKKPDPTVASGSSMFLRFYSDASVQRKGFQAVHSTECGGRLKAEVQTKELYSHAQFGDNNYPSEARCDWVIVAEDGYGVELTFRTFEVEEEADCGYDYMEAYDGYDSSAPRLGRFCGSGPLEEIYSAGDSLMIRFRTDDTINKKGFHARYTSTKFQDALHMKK
Kind of experiment: Inhibition of C-terminal Avi-6x-His epitope tagged and N-terminal human RAGE signal sequence tagged recombinant human TLL2 (26 to 1015 amino acids) expressed in CHOE1A cells incubated for 60 mins with promyostatin peptide substrate by FRET based assay. Format: cell-based.

Experiment [3] is described as follows: Reduction in PICP levels in human cardiac fibroblasts incubated for 24 to 48 hrs by ELISA. Format: functional. The gist of the method:
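Procollagen I C-terminal propeptide in the culture medium was quantified using a Quidel ELISA. The cells were human cardiac fibroblasts of passage 6 or below, seeded at 10,000 to 15,000 cells per well in 96-well plates and treated the next day in ficoll crowding EMEM with 100 μM ascorbic acid and under 0.3% DMSO. Treatment lasted 24 to 48 hr at 37° C. For IC50, levels normalized to untreated controls were fitted to a log(inhibitor)-response equation in GraphPad Prism.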

Tolloid-like protein 1, sequence (O43897 148-1013 I156V/N221S/V284A limits assumed): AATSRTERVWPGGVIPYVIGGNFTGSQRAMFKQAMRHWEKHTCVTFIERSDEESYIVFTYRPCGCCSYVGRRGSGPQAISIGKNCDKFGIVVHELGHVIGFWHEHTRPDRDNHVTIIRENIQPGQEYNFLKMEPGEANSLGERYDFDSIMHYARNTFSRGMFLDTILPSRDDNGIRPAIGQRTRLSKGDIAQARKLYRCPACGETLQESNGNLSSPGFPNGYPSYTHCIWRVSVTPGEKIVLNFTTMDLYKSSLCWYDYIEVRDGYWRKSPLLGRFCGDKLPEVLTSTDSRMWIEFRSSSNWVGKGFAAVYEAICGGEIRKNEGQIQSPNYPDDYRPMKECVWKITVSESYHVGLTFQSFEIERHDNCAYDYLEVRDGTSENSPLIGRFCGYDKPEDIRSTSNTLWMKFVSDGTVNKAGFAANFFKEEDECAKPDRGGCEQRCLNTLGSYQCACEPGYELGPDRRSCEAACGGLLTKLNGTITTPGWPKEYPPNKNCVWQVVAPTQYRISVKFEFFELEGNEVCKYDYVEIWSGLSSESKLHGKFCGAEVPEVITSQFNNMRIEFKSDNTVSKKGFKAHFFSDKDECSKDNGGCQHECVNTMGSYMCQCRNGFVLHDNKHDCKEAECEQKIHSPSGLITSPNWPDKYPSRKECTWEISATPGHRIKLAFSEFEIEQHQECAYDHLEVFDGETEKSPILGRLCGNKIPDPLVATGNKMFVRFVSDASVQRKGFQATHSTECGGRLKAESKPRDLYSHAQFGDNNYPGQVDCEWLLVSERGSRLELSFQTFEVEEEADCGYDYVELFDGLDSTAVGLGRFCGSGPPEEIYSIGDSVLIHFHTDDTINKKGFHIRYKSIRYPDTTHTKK

For the compound `CCCCC[C@@H](C(=O)NCNC(=O)c1ccc(-c2ccc(C(=O)O)c(OCC)c2)o1)[C@@H](CC)N(O)C=O`, the IC50 was less than 126 nM in experiment [1]; less than 200 nM in experiment [2]; less than 398 nM on Tolloid-like protein 1; less than 794 nM on Tolloid-like protein 2; less than 3980 nM in experiment [3].
As to `CCCCC[C@@H](C(=O)NCNC(=O)C1CCC(c2ccccc2)O1)[C@@H](CC)N(O)C=O` (some centres undefined), the IC50 is less than 126 nM in experiment [1], less than 200 nM in experiment [2], less than 398 nM on Tolloid-like protein 1 and less than 794 nM on Tolloid-like protein 2.
Take `CCCCC[C@H](CN(O)C=O)C(=O)NCNC(=O)c1ccc(-c2cccc(C(=O)OC(C)(C)C)c2)o1`: the IC50 in experiment [1] is less than 126 nM; in experiment [2], less than 200 nM; on Tolloid-like protein 1 it was less than 398 nM; at Tolloid-like protein 2 it was less than 794 nM.
For `CCCCC[C@H](CN(O)C=O)C(=O)NCNC(=O)c1ccc(-c2ccc3cn(C)nc3c2)o1`, in that order: less than 126 nM, less than 200 nM, less than 398 nM and less than 794 nM.
For `CCCCC[C@@H](C(=O)NCNC(=O)c1ccc(-c2ccc(C)c(C(=O)O)c2)o1)[C@@H](CC)N(O)C=O` the same measures were less than 126 nM, less than 200 nM, less than 398 nM and less than 794 nM.
Regarding `CCCCC[C@@H](C(=O)NCNC(=O)c1ccc(-c2cc(CC(=O)O)cc(OCC)c2)o1)[C@@H](CC)N(O)C=O`, the IC50 in experiment [1] is less than 126 nM; in experiment [2], less than 200 nM; in experiment [3] it was less than 3980 nM.
Regarding `CCCCC[C@@H](C(=O)NCNC(=O)c1ccc(-c2cncc(C(=O)O)c2)o1)[C@@H](CC)N(O)C=O`, the IC50 in experiment [1] is less than 126 nM; in experiment [2], less than 200 nM; on Tolloid-like protein 1, less than 398 nM; at Tolloid-like protein 2 it was less than 794 nM.
For `CCCCC[C@@H](C(=O)NCNC(=O)c1ccc(-c2cccc(OCCC)c2)o1)[C@@H](CC)N(O)C=O` the same measures were less than 126 nM, less than 200 nM, less than 398 nM and less than 794 nM.
On to `CCCCC[C@H](CN(O)C=O)C(=O)NCNC(=O)c1ccc(-c2cccc(OC(C)C)c2)o1`, for which the IC50 in experiment [1] is less than 126 nM; in experiment [2] it was less than 200 nM; on Tolloid-like protein 1, less than 398 nM; in experiment [3], less than 3980 nM.
In the case of `CCCCC[C@H](CN(O)C=O)C(=O)NCNC(=O)c1ccc(-c2ccc(OC)c(C(=O)O)c2)o1`, the IC50 in experiment [1] was less than 126 nM; in experiment [2] it was less than 200 nM; on Tolloid-like protein 1 it was less than 398 nM; on Tolloid-like protein 2, less than 794 nM.
`CCCCC[C@@H](C(=O)NCNC(=O)c1ccc(-c2cc(OCC)cc(C(=O)NCC(=O)O)c2)o1)[C@@H](CC)N(O)C=O`: the IC50 was less than 126 nM in experiment [1], less than 200 nM in experiment [2] and less than 3980 nM in experiment [3].
Take `CCCCC[C@H](CN(O)C=O)C(=O)NCNC(=O)c1ccc(-c2ccccc2C(=O)OC)o1`: the IC50 in experiment [1] was less than 126 nM; in experiment [2] it was less than 200 nM; on Tolloid-like protein 1, less than 398 nM; on Tolloid-like protein 2, less than 794 nM.
On to `CCCCC[C@H](CN(O)C=O)C(=O)NCNC(=O)c1ccc(-c2ccc(C(=O)OC)cc2)o1`, for which the IC50 in experiment [1] is less than 126 nM; in experiment [2], less than 200 nM; at Tolloid-like protein 1, less than 398 nM; at Tolloid-like protein 2 it was less than 794 nM.
Regarding `CCCCC[C@H](CN(O)C=O)C(=O)NCNC(=O)c1ccc(-c2cccc(OCCN3CCCC3)c2)o1`, the IC50 was less than 126 nM in experiment [1], less than 200 nM in experiment [2], less than 398 nM on Tolloid-like protein 1 and less than 794 nM at Tolloid-like protein 2.
Consider `CCCCC[C@H](CN(O)C=O)C(=O)NCNC(=O)c1ccc(-c2cc(OCC)cc(C(=O)NCCN)c2)o1`, for which the IC50 in experiment [1] was less than 126 nM; in experiment [2], less than 200 nM; in experiment [3], less than 3980 nM.
As to `CCCCC[C@@H](C(=O)NCNC(=O)c1ccc(-c2cccc(/C(N)=N/O)c2)o1)[C@@H](CC)N(O)C=O`, the half-inhibitory concentration (IC50) was less than 126 nM in experiment [1], less than 200 nM in experiment [2], less than 398 nM on Tolloid-like protein 1 and less than 794 nM at Tolloid-like protein 2.
On to `CCCCC[C@H](CN(O)C=O)C(=O)NCNC(=O)c1ccc(-c2ccccc2C(=O)O)o1`, for which the IC50 was less than 126 nM in experiment [1], less than 200 nM in experiment [2], less than 398 nM at Tolloid-like protein 1 and less than 794 nM on Tolloid-like protein 2.
Take `CCCCC[C@H](CN(O)C=O)C(=O)NCNC(=O)c1ccc(-c2cccc(S(N)(=O)=O)c2)o1`: the IC50 in experiment [1] was less than 126 nM; in experiment [2] it was less than 200 nM; on Tolloid-like protein 1, less than 398 nM; on Tolloid-like protein 2 it was less than 794 nM; in experiment [3], less than 3980 nM.
Turning to `CCCCC[C@@H](C(=O)NCNC(=O)c1ccc(-c2ccccc2)o1)[C@@H](CO)N(O)C=O`, the IC50 in experiment [1] is less than 126 nM; in experiment [2], less than 200 nM; at Tolloid-like protein 1 it was less than 398 nM; on Tolloid-like protein 2, less than 794 nM.
For `CCCCC[C@H](CN(O)C=O)C(=O)NCNC(=O)c1ccc(-c2ccc(C)c(C(=O)O)c2)o1`, in that order: less than 126 nM, less than 200 nM, less than 398 nM and less than 794 nM.
For `CCCCC[C@H](CN(O)C=O)C(=O)NCNC(=O)c1ccc(-c2ccc3c(c2)S(=O)(=O)NC3)o1`, in that order: less than 126 nM, less than 200 nM, less than 398 nM and less than 794 nM.
For the compound `CCCCC[C@@H](C(=O)NCNC(=O)c1ccc(-c2ccc(OC)c(C(=O)O)c2)o1)[C@@H](CC)N(O)C=O`, the IC50 in experiment [1] was less than 126 nM; in experiment [2], less than 200 nM; at Tolloid-like protein 1, less than 398 nM; at Tolloid-like protein 2, less than 794 nM.
Regarding `CCOc1cc(-c2ccc(C(=O)NCNC(=O)[C@H](CCc3ccc4ccccc4c3)[C@@H](CC)N(O)C=O)o2)cc(P(=O)(O)O)c1`, the IC50 in experiment [1] is less than 126 nM; in experiment [2], less than 200 nM; in experiment [3], less than 3980 nM.
As to `CCCCC[C@H](CN(O)C=O)C(=O)NCNC(=O)c1ccc(-c2cccc(P(=O)(OC)OC)c2)o1`, the IC50 in experiment [1] was less than 126 nM; in experiment [2] it was less than 200 nM; at Tolloid-like protein 1, less than 398 nM; on Tolloid-like protein 2, less than 794 nM.
